The target of one assay is CDK9/Cyclin T1 (Homo sapiens (Human), UniProt P50750). The assay can be described thus: CDK9 enzyme assay (LANCE ULight TR-FRET kinase assay). In kind it is biochemical. The settings on record: 1000 μM ATP, 100 nM ULight MBP, kinase reaction 1 hour. How it is done: CDK9 enzyme activities were measured using LANCE ULight TR-FRET kinase assay reagents (PerkinElmer, Waltham, Mass.). Compounds were diluted in 100% DMSO then diluted with 1:10 in serine/threonine kinase assay buffer containing 20 mM HEPES, 10 mM MgCl2, […], and 0.0075% Triton X-100. Equal volume of the compound dilutions was added to a final reaction mixture containing LANCE detection buffer (PerkinElmer CR97-100), 100 nM ULight MBP (PerkinElmer TRF0109M), 1000 μM ATP, and CDK9/Cyclin T1 (Carna Biosciences 04-110). The kinase reaction was carried out for 1 hour before addition of stopping buffer to a final of 20 mM EDTA and 0.5 nM of LANCE Ultra Europium anti-phospho-MBP antibody (PerkinElmer TRF0201M) in LANCE detection buffer. The reaction was incubated for 1 hour and the signal was read in Envision in TR-FRET mode (excitation at 320 nm and emission at 615/665 nm).

In the next assay the test system is H929 cells. The assay can be described thus: Cell viability assay (Cell TiterGlo). The settings on record: Homo sapiens, NCI-H929, 24 hours at 37° C., Cell TiterGlo luminescence. In kind it is cell-based. As to the method: The cell viability assay was performed using H929 cells. Cells were seeded in 96-well plates at 10,000 cells/well and, after overnight incubation, treated with compounds in a dose response of 3-fold dilutions from 10 μM to 0.005 μM ([…], 0.1% final DMSO concentration). After 24 hours at 37° C., cell viability was measured using Cell TiterGlo reagent (Promega) with a luminescence reader.
(ATP-based viability assays read luminescence as a measure of living cells.)

Usually pIC50 stands for −log10 of the IC50, conventionally taken in molar units. Read a low pIC50 as a large IC50.

The structures appear in SMILES notation. pIC50: −log10 of the molar value. Structures can show the parent of a compound that is named as a salt.

CDK9/Cyclin T1, sequence (P50750 whole entry): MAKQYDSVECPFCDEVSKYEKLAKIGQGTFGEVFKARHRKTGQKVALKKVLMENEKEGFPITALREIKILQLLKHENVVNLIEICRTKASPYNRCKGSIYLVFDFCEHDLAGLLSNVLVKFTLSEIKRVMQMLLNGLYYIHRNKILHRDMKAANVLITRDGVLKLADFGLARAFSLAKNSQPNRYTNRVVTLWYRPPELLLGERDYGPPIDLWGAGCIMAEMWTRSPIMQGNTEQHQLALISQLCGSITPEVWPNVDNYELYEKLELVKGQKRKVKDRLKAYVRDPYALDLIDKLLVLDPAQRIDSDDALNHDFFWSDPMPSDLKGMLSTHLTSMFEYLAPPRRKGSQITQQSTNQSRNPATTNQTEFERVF
CDK9/Cyclin T1, sequence (O60563 whole entry partner): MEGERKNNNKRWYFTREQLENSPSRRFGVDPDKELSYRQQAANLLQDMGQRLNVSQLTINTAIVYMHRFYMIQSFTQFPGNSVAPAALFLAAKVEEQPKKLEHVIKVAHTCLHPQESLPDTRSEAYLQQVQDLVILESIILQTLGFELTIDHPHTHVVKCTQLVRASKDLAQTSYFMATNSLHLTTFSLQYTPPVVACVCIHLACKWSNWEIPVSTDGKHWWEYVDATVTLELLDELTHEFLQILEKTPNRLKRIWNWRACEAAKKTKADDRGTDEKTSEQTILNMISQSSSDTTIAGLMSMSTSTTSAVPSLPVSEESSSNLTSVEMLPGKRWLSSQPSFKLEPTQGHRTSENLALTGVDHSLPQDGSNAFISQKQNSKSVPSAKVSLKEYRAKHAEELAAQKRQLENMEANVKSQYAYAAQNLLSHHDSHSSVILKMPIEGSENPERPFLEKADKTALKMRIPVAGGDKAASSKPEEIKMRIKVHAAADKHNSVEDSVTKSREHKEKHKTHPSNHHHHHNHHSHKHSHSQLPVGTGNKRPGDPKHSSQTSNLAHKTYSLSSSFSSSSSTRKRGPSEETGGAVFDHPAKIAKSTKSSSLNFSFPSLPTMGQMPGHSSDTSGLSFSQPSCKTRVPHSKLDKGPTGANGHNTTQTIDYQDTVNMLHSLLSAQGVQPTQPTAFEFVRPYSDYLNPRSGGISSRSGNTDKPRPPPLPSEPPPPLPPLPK

Regarding `CN1Cc2c(C3=CCNCC3)[nH]c3nccc(c23)-c2cc(F)ccc21` [Example 1, 10-fluoro-7-methyl-5-(1,2,3,6-tetrahydropyridin-4-yl)-6,7-dihydro-4H-3,4,7-triazadibenzo[cd,f]azulene], the pIC50 was 7.68 on CDK9/Cyclin T1 and 7.40 in the assay on H929 cells. `CN1Cc2c(C3=CCN(C(=O)OC(C)(C)C)CC3)[nH]c3nccc(c23)-c2cc(F)ccc21` [Example 2, tert-butyl 4-(10-fluoro-7-methyl-6,7-dihydro-4H-3,4,7-triazadibenzo[cd,f]azulen-5-yl)-3,6-dihydropyridine-1(2H)-carboxylate] had a negative logarithm of the IC50 (pIC50) in the assay with H929 cells of 6.03. As for `CCOC(=O)NS(=O)(=O)N1CC=C(c2[nH]c3nccc4c3c2CN(C)c2ccc(F)cc2-4)CC1` [Example 3, ethyl{[4-(10-fluoro-7-methyl-6,7-dihydro-4H-3,4,7-triazadibenzo[cd,f]azulen-5-yl)-3,6-dihydropyridin-1(2H)-yl]sulfonyl}carbamate], the results for the negative logarithm of the IC50 (pIC50) against CDK9/Cyclin T1 and in the assay with H929 cells were 7.33 and 6.23, respectively.

For the molecule `CN1Cc2c(C3=CCN(S(C)(=O)=O)CC3)[nH]c3nccc(c23)-c2cc(F)ccc21` [Example 4, 10-fluoro-7-methyl-5-[1-(methylsulfonyl)-1,2,3,6-tetrahydropyridin-4-yl]-6,7-dihydro-4H-3,4,7-triazadibenzo[cd,f]azulene], the negative-log IC50 (pIC50) is 7.60 against CDK9/Cyclin T1 and 6.82 in the assay with H929 cells. As to `CS(=O)(=O)N1CC=C(c2[nH]c3nccc4c3c2CNc2ccc(F)cc2-4)CC1` [Example 5, 10-fluoro-5-[1-(methylsulfonyl)-1,2,3,6-tetrahydropyridin-4-yl]-6,7-dihydro-4H-3,4,7-triazadibenzo[cd,f]azulene], the pIC50 against CDK9/Cyclin T1 was 7.21; with H929 cells, 6.14. As for `CCCN1Cc2c(C3=CCN(S(C)(=O)=O)CC3)[nH]c3nccc(c23)-c2cc(F)ccc21` [Example 6, 10-fluoro-5-[1-(methylsulfonyl)-1,2,3,6-tetrahydropyridin-4-yl]-7-propyl-6,7-dihydro-4H-3,4,7-triazadibenzo[cd,f]azulene], the pIC50 was 6.47 against CDK9/Cyclin T1 and 5.68 in the assay on H929 cells.

Take `CS(=O)(=O)N1CC=C(c2[nH]c3nccc4c3c2CN(CC2CCOCC2)c2ccc(F)cc2-4)CC1` [Example 7, 10-fluoro-5-[1-(methylsulfonyl)-1,2,3,6-tetrahydropyridin-4-yl]-7-(tetrahydro-2H-pyran-4-ylmethyl)-6,7-dihydro-4H-3,4,7-triazadibenzo[cd,f]azulene]: the values for the negative-log IC50 (pIC50) against CDK9/Cyclin T1 and with H929 cells were 6.10 and 5.48, respectively. The molecule `CCC1c2c(C3=CCN(C(=O)OC(C)(C)C)CC3)[nH]c3nccc(c23)-c2cc(F)ccc2N1C` (centres unmarked) [Example 8, tert-butyl 4-(6-ethyl-10-fluoro-7-methyl-6,7-dihydro-4H-3,4,7-triazadibenzo[cd,f]azulen-5-yl)-3,6-dihydropyridine-1(2H)-carboxylate] showed a negative-log IC50 (pIC50) on CDK9/Cyclin T1 of 5.85.

For the molecule `CCC1c2c(C3=CCNCC3)[nH]c3nccc(c23)-c2cc(F)ccc2N1C` (centres unmarked) [Example 9, 6-ethyl-10-fluoro-7-methyl-5-(1,2,3,6-tetrahydropyridin-4-yl)-6,7-dihydro-4H-3,4,7-triazadibenzo[cd,f]azulene dihydrochloride], the pIC50 against CDK9/Cyclin T1 is 7.32; with H929 cells, 8.00. The corresponding values for `CN1c2ccc(F)cc2-c2ccnc3[nH]c(C4=CCNCC4)c(c23)C1c1cnn(C)c1` (centres unmarked) [Example 10, 10-fluoro-7-methyl-6-(1-methyl-1H-pyrazol-4-yl)-5-(1,2,3,6-tetrahydropyridin-4-yl)-6,7-dihydro-4H-3,4,7-triazadibenzo[cd,f]azulene] are 6.64 and 6.44. Consider `CCC1c2c(C3=CCN(S(C)(=O)=O)CC3)[nH]c3nccc(c23)-c2cc(F)ccc2N1C` (centres unmarked) [Example 11, 6-ethyl-10-fluoro-7-methyl-5-[1-(methylsulfonyl)-1,2,3,6-tetrahydropyridin-4-yl]-6,7-dihydro-4H-3,4,7-triazadibenzo[cd,f]azulene], for which the pIC50 against CDK9/Cyclin T1 was 6.92; with H929 cells, 7.49. The corresponding values for `CN(C)C(=O)CN1CC=C(c2[nH]c3nccc4c3c2CN(C)c2ccc(F)cc2-4)CC1` [Example 12, 2-[4-(10-fluoro-7-methyl-6,7-dihydro-4H-3,4,7-triazadibenzo[cd,f]azulen-5-yl)-3,6-dihydropyridin-1(2H)-yl]-N,N-dimethylacetamide] are 7.29 and 7.38. As to `CNC(=O)N1CC=C(c2[nH]c3nccc4c3c2CN(C)c2ccc(F)cc2-4)CC1` [Example 13, 4-(10-fluoro-7-methyl-6,7-dihydro-4H-3,4,7-triazadibenzo[cd,f]azulen-5-yl)-N-methyl-3,6-dihydropyridine-1(2H)-carboxamide], in the assay on H929 cells, the negative-log IC50 (pIC50) is 7.03. Consider `Fc1ccc2c(c1)-c1ccnc3[nH]c(C4=CCNCC4)c(c13)CO2` [Example 14, 10-fluoro-5-(1,2,3,6-tetrahydropyridin-4-yl)-4,6-dihydro-7-oxa-3,4-diazadibenzo[cd,f]azulene], for which the figures for the pIC50 at CDK9/Cyclin T1 and with H929 cells were 7.70 and 6.74, respectively.

As to `CS(=O)(=O)N1CC=C(c2[nH]c3nccc4c3c2COc2ccc(F)cc2-4)CC1` [Example 15, 10-fluoro-5-[1-(methylsulfonyl)-1,2,3,6-tetrahydropyridin-4-yl]-4,6-dihydro-7-oxa-3,4-diazadibenzo[cd,f]azulene], the pIC50 is 7.03 against CDK9/Cyclin T1 and 6.23 in the assay with H929 cells. On CDK9/Cyclin T1, `CN1Cc2c(C3CCN(CC(=O)OC(C)(C)C)CC3)[nH]c3nccc(c23)-c2cc(F)ccc21` [Example 22, tert-butyl[4-(10-fluoro-7-methyl-6,7-dihydro-4H-3,4,7-triazadibenzo[cd,f]azulen-5-yl)piperidin-1-yl]acetate] gave a pIC50 of 5.55. For `CN1Cc2c(C3CCN(CC(=O)O)CC3)[nH]c3nccc(c23)-c2cc(F)ccc21` [Example 23, [4-(10-fluoro-7-methyl-6,7-dihydro-4H-3,4,7-triazadibenzo[cd,f]azulen-5-yl)piperidin-1-yl]acetic acid], the pIC50 at CDK9/Cyclin T1 is 6.82.

In the assay on H929 cells, `CN1Cc2c(C3=CCN(S(C)(=O)=O)CC3)[nH]c3ncc(F)c(c23)-c2cc(F)ccc21` [Example 68, 1,10-difluoro-7-methyl-5-[1-(methylsulfonyl)-1,2,3,6-tetrahydropyridin-4-yl]-6,7-dihydro-4H-3,4,7-triazadibenzo[cd,f]azulene] gave a pIC50 of 6.89. Still for that read-out and setting: to `CN(CCO)C(=O)CN1CC=C(c2[nH]c3ncc(F)c4c3c2CN(C)c2ccc(F)cc2-4)CC1` [Example 71, 2-[4-(1,10-difluoro-7-methyl-6,7-dihydro-4H-3,4,7-triazadibenzo[cd,f]azulen-5-yl)-3,6-dihydropyridin-1(2H)-yl]-N-(2-hydroxyethyl)-N-methylacetamide] belongs 7.68. `CN1Cc2c(C3=CCCN(CC(=O)O)C3)[nH]c3nccc(c23)-c2cc(F)ccc21` [Example 112, [5-(10-fluoro-7-methyl-6,7-dihydro-4H-3,4,7-triazadibenzo[cd,f]azulen-5-yl)-3,6-dihydropyridin-1(2H)-yl]acetic acid]: the pIC50 against CDK9/Cyclin T1 is 6.62.

`COC(=O)C[C@H]1CC[C@H](N2CC=C(c3[nH]c4nccc5c4c3CN(C)c3cc(F)c(F)cc3-5)CC2)CC1` [Example 133, methyl{trans-4-[4-(9,10-difluoro-7-methyl-6,7-dihydro-4H-3,4,7-triazadibenzo[cd,f]azulen-5-yl)-3,6-dihydropyridin-1(2H)-yl]cyclohexyl}acetate]: the pIC50 against CDK9/Cyclin T1 is 7.24.

At CDK9/Cyclin T1, `CN1Cc2c(C3=CCN([C@H]4CC[C@H](CC(=O)O)CC4)CC3)[nH]c3nccc(c23)-c2ccccc21` [Example 169, {trans-4-[4-(7-methyl-6,7-dihydro-4H-3,4,7-triazadibenzo[cd,f]azulen-5-yl)-3,6-dihydropyridin-1(2H)-yl]cyclohexyl}acetic acid] had a negative logarithm of the IC50 (pIC50) of 7.05. The same measure, in the same setting: with `CN1Cc2c(C3=CCN([C@H]4CC[C@@H](CC(=O)O)CC4)CC3)[nH]c3nccc(c23)-c2ccccc21` [Example 170, {cis-4-[4-(7-methyl-6,7-dihydro-4H-3,4,7-triazadibenzo[cd,f]azulen-5-yl)-3,6-dihydropyridin-1(2H)-yl]cyclohexyl}acetic acid] the figure was 6.96; with `CN1Cc2c(C3=CCN([C@H]4CC[C@H](C(=O)O)CC4)CC3)[nH]c3nccc(c23)-c2ccccc21` [Example 171, trans-4-[4-(7-methyl-6,7-dihydro-4H-3,4,7-triazadibenzo[cd,f]azulen-5-yl)-3,6-dihydropyridin-1(2H)-yl]cyclohexanecarboxylic acid], 6.82. `CN1Cc2c(C3=CCN(C4CCC(C(=O)O)CC4)CC3)[nH]c3nccc(c23)-c2ccccc21` (centres unmarked) [Example 172, 4-[4-(7-methyl-6,7-dihydro-4H-3,4,7-triazadibenzo[cd,f]azulen-5-yl)-3,6-dihydropyridin-1(2H)-yl]cyclohexanecarboxylic acid] showed a pIC50 on CDK9/Cyclin T1 of 6.92. `CC(C(=O)O)=C1CCC(N2CC=C(c3[nH]c4nccc5c4c3CN(C)c3ccc(F)cc3-5)CC2)CC1` (centres unmarked) [Example 176, 2-{4-[4-(10-fluoro-7-methyl-6,7-dihydro-4H-3,4,7-triazadibenzo[cd,f]azulen-5-yl)-3,6-dihydropyridin-1(2H)-yl]cyclohexylidene}propanoic acid] gave a pIC50 against CDK9/Cyclin T1 of 7.08.

The values above are taken from patent publication US9328112B2, “Tetracyclic CDK9 kinase inhibitors” (AbbVie Inc., priority 2014, dated 2016).
